What all share (type): cell-based
For assay [1], the target named is T1, endogenous human transferrin receptor (Homo sapiens, UniProt P02786).
T1 construct: endogenous in cells; host or cells: HEK293T
Description: Metabolic labelling with [3H] palmitate, endogenous transferrin receptor. Conditions: 1 µM.

Assay [2] has as its target T2, STING (Mus musculus, UniProt Q3TBT3).
T2 sequence (Q3TBT3 1-378): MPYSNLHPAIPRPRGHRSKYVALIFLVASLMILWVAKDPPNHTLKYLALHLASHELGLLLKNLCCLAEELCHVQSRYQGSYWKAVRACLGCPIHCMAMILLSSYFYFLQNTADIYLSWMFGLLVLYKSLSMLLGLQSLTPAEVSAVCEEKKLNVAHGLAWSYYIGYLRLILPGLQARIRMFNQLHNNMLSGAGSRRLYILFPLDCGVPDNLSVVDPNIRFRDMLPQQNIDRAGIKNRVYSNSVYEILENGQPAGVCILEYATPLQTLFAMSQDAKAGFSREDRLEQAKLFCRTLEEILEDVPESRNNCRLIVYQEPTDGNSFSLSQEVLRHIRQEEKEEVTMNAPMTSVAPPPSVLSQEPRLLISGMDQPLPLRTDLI
Nature of the assay: Flag immunoprecipitation, recruitment of TBK1 to STING. Also on record: expressed in transfected cells; host or cells: HEK293T. Conditions: HEK293T expressing Flag-STING; 1 µM; CMA 2 h.

In assay [3] the target is T3, RIG-I (Homo sapiens, UniProt O95786).
T3 construct: expressed in transfected cells; host or cells: HEK293T
T3 sequence (O95786 1-925): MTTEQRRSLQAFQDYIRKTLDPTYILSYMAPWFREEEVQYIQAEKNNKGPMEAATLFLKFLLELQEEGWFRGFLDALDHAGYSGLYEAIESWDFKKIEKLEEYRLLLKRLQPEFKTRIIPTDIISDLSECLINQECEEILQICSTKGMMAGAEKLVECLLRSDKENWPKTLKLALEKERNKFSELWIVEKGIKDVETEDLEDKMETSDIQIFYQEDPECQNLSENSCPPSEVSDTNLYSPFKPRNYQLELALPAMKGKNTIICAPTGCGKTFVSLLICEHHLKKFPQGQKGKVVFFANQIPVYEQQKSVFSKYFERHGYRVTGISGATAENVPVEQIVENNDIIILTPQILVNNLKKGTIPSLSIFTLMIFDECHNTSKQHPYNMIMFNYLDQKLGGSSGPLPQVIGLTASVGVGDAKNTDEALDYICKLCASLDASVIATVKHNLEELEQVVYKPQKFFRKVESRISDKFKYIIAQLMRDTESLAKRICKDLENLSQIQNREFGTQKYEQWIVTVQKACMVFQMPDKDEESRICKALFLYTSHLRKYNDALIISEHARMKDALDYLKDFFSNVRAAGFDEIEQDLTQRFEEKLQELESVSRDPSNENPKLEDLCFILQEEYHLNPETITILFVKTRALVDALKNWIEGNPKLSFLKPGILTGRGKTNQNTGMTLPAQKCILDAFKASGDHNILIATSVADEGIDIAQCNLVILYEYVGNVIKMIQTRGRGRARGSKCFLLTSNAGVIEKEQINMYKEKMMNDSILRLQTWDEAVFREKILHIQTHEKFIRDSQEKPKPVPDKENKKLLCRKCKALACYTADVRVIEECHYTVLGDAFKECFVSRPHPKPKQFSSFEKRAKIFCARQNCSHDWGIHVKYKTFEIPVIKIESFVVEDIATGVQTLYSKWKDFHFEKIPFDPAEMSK
Nature of the assay: IFN-beta luciferase reporter in HEK293T cells transfected with RIG-I (counter-screen). Conditions: 0.01-5µM. The method, then:
Reporter activity was measured 16 h after compound treatment. A nonlinear regression analysis was performed. […] Circles indicate substitutes compared to C-176. d, e, Chemical compounds from (c) were tested at 0.5 µM for inhibitory activity in HEK293T cells transfected with STING (e) or RIG-I (f) in conjunction with IFN-• luciferase reporter, respectively. b, e, f, Values of inhibitor-treated cells were normalized to DMSO-treated cells. […] Cytokine levels were normalized to DMSO-treated control cells. A nonlinear regression analysis was performed for cGAMP stimulation. b, c, BMDMs were pre-treated with C-178 (0.25 µM) and stimulated with cGAMP, cyclic di-GMP, CMA, 90mer dsDNA or LPS for 3 h. The induction of Ifnb1 mRNA levels was assessed by RT-qPCR. d, Heatmaps of RNA sequencing analysis of BMDMs treated with DMSO or CMA and with or without addition of C-178. […] Reporter activity was measured 16 h after transfection and values were normalized to DMSO-treated control cells. c, BMDMs were treated with C-178 (0.25 µM) for 1 h, washed or left untreated and after an additional hour stimulated with cGAMP. […] Flag-STING was immunoprecipitated from whole cell lysate and analysed by autoradiography. In parallel, cell lysates were analysed by immunoblotting for p-TBK1 and STING. d, HEK293T cells expressing STING were treated as indicated (C-178 (1 µM)) and stimulated with CMA for 1.5 h. […]
Background: In a reporter assay the amount or activity of a reporter protein is the signal.

SMILES strings stand for the structures.

T1 sequence (P02786 whole entry): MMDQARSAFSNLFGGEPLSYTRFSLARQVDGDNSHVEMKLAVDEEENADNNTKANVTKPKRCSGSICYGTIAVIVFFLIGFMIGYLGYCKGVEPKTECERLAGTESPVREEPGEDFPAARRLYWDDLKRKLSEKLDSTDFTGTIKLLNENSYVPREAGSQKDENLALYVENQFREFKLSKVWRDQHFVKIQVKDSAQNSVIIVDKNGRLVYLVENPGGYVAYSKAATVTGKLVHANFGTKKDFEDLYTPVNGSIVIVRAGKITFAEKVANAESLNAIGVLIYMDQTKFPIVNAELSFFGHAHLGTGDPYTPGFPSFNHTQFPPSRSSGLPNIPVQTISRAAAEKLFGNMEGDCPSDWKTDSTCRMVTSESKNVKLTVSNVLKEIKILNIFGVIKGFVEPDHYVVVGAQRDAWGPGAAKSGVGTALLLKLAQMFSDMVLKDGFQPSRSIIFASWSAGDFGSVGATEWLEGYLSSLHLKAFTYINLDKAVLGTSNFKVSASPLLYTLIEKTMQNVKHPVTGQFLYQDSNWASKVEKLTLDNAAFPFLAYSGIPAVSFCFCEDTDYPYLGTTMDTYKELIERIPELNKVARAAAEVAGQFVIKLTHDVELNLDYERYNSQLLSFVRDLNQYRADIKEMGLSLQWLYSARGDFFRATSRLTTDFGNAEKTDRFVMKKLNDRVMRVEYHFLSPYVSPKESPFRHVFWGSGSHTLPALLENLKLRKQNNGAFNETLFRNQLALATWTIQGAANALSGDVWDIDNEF

`O=C(Nc1ccc(I)cc1)c1ccc([N+](=O)[O-])o1` [C-176, N-(4-iodophenyl)-5-nitro-2-furamide]: the “[^3H] palmitate labelling of the endogenous transferrin receptor” value in assay [1] is given as “neither C-178 nor C-176 affected”. Further, the “recruitment of TBK1” value in assay [2] is reported as “block”. For the same molecule, the “RIG-I-driven IFN induction” value in assay [3] is reported as “neither RIG-I nor TBK1-driven IFN induction was affected”.

The values above are taken from patent publication EP3502102A1, “STING INHIBITORS” (ECOLE POLYTECHNIQUE FEDERALE DE LAUSANNE (EPFL), priority 2017, dated 2019).
